The values below come from patent US5393780A, “4-fluorobiphenyl derivatives” (priority 1993, dated 1995).

Series [1] addresses T1, HMG-CoA Reductase (Rattus norvegicus, UniProt P51639).
T1 sequence (P51639 1-887): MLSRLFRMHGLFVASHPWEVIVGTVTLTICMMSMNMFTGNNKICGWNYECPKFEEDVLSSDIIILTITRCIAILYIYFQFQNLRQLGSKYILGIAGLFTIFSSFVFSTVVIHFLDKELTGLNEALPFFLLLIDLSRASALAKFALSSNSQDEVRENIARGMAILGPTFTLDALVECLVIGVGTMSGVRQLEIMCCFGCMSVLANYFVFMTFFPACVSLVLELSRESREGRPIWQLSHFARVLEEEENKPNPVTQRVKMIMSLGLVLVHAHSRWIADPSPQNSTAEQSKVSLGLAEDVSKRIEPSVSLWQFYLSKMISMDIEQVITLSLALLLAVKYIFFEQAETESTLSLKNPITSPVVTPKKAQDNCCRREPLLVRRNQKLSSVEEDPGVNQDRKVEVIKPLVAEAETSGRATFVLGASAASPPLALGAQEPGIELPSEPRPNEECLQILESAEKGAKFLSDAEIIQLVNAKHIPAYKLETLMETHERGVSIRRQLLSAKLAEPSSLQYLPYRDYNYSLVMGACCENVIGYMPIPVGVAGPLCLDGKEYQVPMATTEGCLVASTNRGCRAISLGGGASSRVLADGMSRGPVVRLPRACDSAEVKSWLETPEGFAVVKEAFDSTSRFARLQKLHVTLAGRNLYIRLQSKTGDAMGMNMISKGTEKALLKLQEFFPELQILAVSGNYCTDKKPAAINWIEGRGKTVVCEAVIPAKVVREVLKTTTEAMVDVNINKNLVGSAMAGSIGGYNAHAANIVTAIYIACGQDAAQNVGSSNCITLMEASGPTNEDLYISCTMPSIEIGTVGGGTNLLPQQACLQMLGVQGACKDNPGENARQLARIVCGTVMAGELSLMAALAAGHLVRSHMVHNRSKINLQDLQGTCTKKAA
Kind of series: biochemical. The settings on record: read-out: HMG-CoA Reductase Inhibition %. The protocol:
Determination of Inhibitory Activity on HMG-CoA Reductase
The inhibitory effect on HMG-CoA Reductase of each of representative examples of the 4-fluorobiphenyl derivatives prepared in the above-discussed examples was determined in accordance with the method described in Journal of Biological Chemistry (J. Biol. Chem.) Vol. 234, page 2835 (1959).

Series [2] deals with biosynthesis of sterol. Kind of series: Determination of Inhibition of Sterol Synthesis (14C-acetic acid, liver, after oral dosing). In kind it is in vivo, SD rat. Particulars: 14C-acetic acid five hours later. How it is done:
Determination of Inhibition of Sterol Synthesis
Representative compounds (0.3 mg/5 ml/kg) suspended in a 5% arabic gum solution were orally given to SD rate weighing 150 to 200 g.
Five hours later, ^14 C-acetic acid (100 μCi/kg) was intraperitoneally injected, and furthermore one hour later, liver was removed to determine the inhibitory activity of each of the compounds on the biosynthesis of sterol.

Series [3] in a line: Determination of Partition Coefficient (n-octanol/phosphoric acid buffer pH 7.0). The settings on record: P=Co/Cw; for logD: n-octanol/phosphate buffer. Format: physicochemical. The protocol: Determination of Partition Coefficient
The partition coefficient of each of representative compounds synthesized in the above-mentioned Examples was determined in accordance with the method by Hansh et al. (J. Am. Chem. Soc., 86, 5175 (1964)).
More specifically, the compound to be tested was dissolved in either an n-octanol solution which was saturated with a phosphoric acid buffer solution of pH 7.0 (Solution A) or a phosphoric acid buffer solution of pH 7.0 saturated with n-octanol (Solution B).
5 ml of the solution (Solution A or Solution B) in which the compound was dissolved and 5 ml of the solution (Solution B or Solution A) in which the compound was not dissolved were placed in a screw vial tube, and shaken for 30 minutes. This mixed solution was centrifuged for 15 minutes, and was then allowed to stand. The mixed solution was separated into two phases, that is, a water phase and a n-octanol phase.
The concentration of the compound in the water phase was determined by the UV method, and the concentration of the compound in the n-octanol phase was determined by deducting the concentration of the compound in the water phase from the concentration of the compound in the initially mixed solution (Solution A and Solution B).
The partition coefficient of the compound was calculated in accordance with the following formula:
Partition coefficient (P)=Co/Cw
wherein Co is the concentration of the compound in the n-octanol phase, and Cw is the concentration of the compound in the water phase.

The conditions of series [4]: referred to JAMA (Japanese Edition) October 1991 Supplement, pages 42-47; cited from earlier work.
For series [5] the following is noted: cited from earlier work.
Series [6] relates to liver cells and non-liver cells. The settings on record: cited from earlier work.
Series [7] concerns cholesterol in the blood. Particulars: cited from earlier work.
For series [8], the system named is cells of smooth muscles. The settings on record: advantage over pravastatin; cited from earlier work.
In series [9] the target is T2, HMG-CoA Reductase (Homo sapiens, UniProt P04035).
T2 sequence (P04035 1-888): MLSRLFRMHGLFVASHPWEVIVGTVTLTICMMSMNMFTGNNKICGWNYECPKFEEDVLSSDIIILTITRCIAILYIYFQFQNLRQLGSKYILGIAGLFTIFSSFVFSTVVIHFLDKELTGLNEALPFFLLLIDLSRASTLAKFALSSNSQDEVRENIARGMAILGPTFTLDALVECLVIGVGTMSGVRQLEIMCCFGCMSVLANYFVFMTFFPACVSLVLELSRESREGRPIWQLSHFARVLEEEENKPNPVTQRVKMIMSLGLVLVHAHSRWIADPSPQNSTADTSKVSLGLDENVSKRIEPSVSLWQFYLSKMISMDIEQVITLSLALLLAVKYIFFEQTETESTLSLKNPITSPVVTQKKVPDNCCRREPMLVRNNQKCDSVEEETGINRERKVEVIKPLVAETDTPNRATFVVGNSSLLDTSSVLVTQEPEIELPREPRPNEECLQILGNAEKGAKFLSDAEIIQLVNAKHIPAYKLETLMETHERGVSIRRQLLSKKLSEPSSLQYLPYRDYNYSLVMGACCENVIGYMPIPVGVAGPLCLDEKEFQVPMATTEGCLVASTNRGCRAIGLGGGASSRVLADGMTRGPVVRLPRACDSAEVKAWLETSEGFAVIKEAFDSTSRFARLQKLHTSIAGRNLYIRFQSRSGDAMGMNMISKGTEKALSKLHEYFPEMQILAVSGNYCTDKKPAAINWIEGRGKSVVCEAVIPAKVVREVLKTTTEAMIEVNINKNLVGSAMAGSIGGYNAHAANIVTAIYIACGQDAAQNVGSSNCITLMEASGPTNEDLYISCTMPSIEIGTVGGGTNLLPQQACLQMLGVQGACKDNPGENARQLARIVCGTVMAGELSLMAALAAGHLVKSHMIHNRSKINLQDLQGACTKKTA
The settings on record: cited from earlier work.

For series [10] the following is noted: literature reports; cited from earlier work.

As to `CC(C)c1cc(OCCO)cc(-c2ccc(F)cc2)c1/C=C/C(O)CC(O)CC(=O)[O-].[Na+]` (centres unmarked), the inhibition at 0.1 µM in series [1] was 98%. Moreover, the “Sterol Synthesis Inhibition %” value in series [2] (Administered amount 0.3 mg/kg) worked out at 40%. For the same compound, the logD in [3] was 0.114.
`CC(C)c1cc(OCc2ccccn2)cc(-c2ccc(F)cc2)c1/C=C/C(O)CC(O)CC(=O)O` (centres unmarked): the inhibition at 0.1 µM in [1] came to 95%. For the same compound, the logD in series [3] is 1.43.
As for `CC[C@H](C)C(=O)O[C@H]1C[C@H](O)C=C2C=C[C@H](C)[C@H](CC[C@@H](O)C[C@@H](O)CC(=O)O)[C@H]21` [Pravastatin], the inhibition at 0.1 µM in series [1] was 88%. Further, the “Sterol Synthesis Inhibition %” value in series [2] (Administered amount 1 mg/kg) is listed as 16%. In series [3], the “Partition Coefficient” value is 0.36 and the logD is -0.444. In addition, in series [4], the “Partition Coefficient (literature)” value is 0.34. Moreover, the water-solubility / lipid-solubility entry in [5] is on record as “highly water-soluble”. In addition, the “incorporation into liver / non-liver cells” value in series [6] was “not incorporated into histoblasts other than those of liver”.
For the compound `CCC(C)(C)C(=O)O[C@H]1C[C@@H](C)C=C2C=C[C@H](C)[C@H](CC[C@@H]3C[C@@H](O)CC(=O)O3)[C@H]21` [Simvastatin], the “Sterol Synthesis Inhibition %” value in [2] (Administered amount 0.3 mg/kg) is 1%; in series [2] (Administered amount 1 mg/kg) it was 41%. The “Partition Coefficient” value in series [3] (ring-opened type sodium salt) is recorded as 74. Further, the “Partition Coefficient (literature)” value in series [4] is listed as 75.8. Also, in series [7], the cholesterol lowering effect entry is “strong cholesterol lowering effect”. In series [8], the “cytostatic function with respect to the cells of smooth muscles” value is on record as “antiarteriosclerosis effect because of its cytostatic function with respect to the cells of smooth muscles”.
Regarding `CC[C@H](C)C(=O)O[C@H]1CCC=C2C=C[C@H](C)[C@H](CC[C@@H]3C[C@@H](O)CC(=O)O3)[C@H]21` [ML-236B, Mevastatin], the cholesterol lowering effect result in [7] is on record as “capable of lowering the concentration of cholesterol in the blood”. In addition, the “inhibitory effect on HMG-CoA reductase” value in [9] is on record as “competitive inhibitory effect on HMG-CoA reductase”.
Consider `CC(C)c1cc(OCc2cccnc2)cc(-c2ccc(F)cc2)c1/C=C/C(O)CC(O)CC(=O)O` (centres unmarked), for which, in series [1], the inhibition at 0.1 µM is 95%. In series [3], this compound showed a logD of 1.41.
In the case of `COCCOc1cc(-c2ccc(F)cc2)c(/C=C/C(O)CC(O)CC(=O)[O-])c(C(C)C)c1.[Na+]` (centres unmarked), the inhibition at 0.1 µM in series [1] is 96%. In addition, the “Sterol Synthesis Inhibition %” value in [2] (Administered amount 0.3 mg/kg) was 30%. Besides, the logD in [3] was 0.716.
`CC(C)c1cc(OCc2ccncc2)cc(-c2ccc(F)cc2)c1/C=C/C(O)CC(O)CC(=O)O` (centres unmarked): the inhibition at 0.1 µM in [1] amounted to 96%. The logD in series [3] was 1.48.
Turning to `CC[C@H](C)C(=O)O[C@H]1C[C@@H](C)C=C2C=C[C@H](C)[C@H](CC[C@@H]3C[C@@H](O)CC(=O)O3)[C@H]21` [lovastatin], the side effects entry in series [10] was “myositis and sleep disorder”. Besides, the cholesterol lowering effect entry in series [7] is on record as “strong cholesterol lowering effect”. Moreover, the water-solubility / lipid-solubility result in series [5] is on record as “highly lipid-soluble”. The “incorporation into liver / non-liver cells” value in [6] was “transferred into both liver cells and non-liver cells”.
On to `COCCOCCOc1cc(-c2ccc(F)cc2)c(/C=C/C(O)CC(O)CC(=O)O)c(C(C)C)c1` (centres unmarked), for which the pH-dependent lipophilicity (logD) in series [3] is 0.519.

One may read the inhibition as the relative decrease from the control value, in per cent. As usually defined, the logD is lipophilicity at a set pH, counting ionised and neutral species. Low readings indicate lower lipophilicity, high ones higher lipophilicity.
